Source: patent publication US8916604B2, “Compositions and methods for epigenetic modification of nucleic acid sequences” (Rutgers, The State University of New Jersey, priority 2011, dated 2014)

Columns and labels:
[1] = system: apoptotic cells in the dorso-lateral prostates; test: IHC staining of TRAMP prostate tissue, apoptosis (TUNEL); assay type: in vivo, mouse; details: D-G1 and D-G2 vs control, p<0.001
Procedure: Sections (4 μm) were cut from the paraffin embedded prostate tissue and mounted on glass slides. The slides Were deparafinized in xylene and antigen unmasking was performed by applying proteinase K digestion directly on the slides for 15 min. Endogenous peroxidase was blocked by incubating in 3% […] for 5 min, and ApopTag Plus Peroxidase In Situ Apoptosis Detection Kit (Millipore, Temecula, Calif., U.S.A.) was used to detect apoptotic cells. For detection of proliferative cells, monoclonal mouse anti-proliferating cell nuclear antigen (PCNA) antibody (Clone PC10, 1:50, Dako North America, Carpinteria, Calif., U.S.A.) was used (12). The staining was performed following as the manufacturer's protocols. Anti-5-methylcytosine (5-MC) mouse monoclone antibody (Clone 162 33 D3, 1:50, EMD Chemicals, Philadelphia, Pa., U.S.A.) was used to detect genome-wide methylated DNA. […] Quantitation of IHC staining was done using the Aperio ScanScope® GL system according to the manufactures protocol (Aperio Technologies Inc., Vista, Calif., U.S.A.). […] The Aperio ImageScopoe software (v 10.1.3.2028) allowed the unbiased quantification and quantitative analysis of the IHC staining of biomarkers of prostate tumor samples obtained from untreated control versus the treated TRAMP mice.

DNMT3b = test: qPCR in TRAMP C1 cells; assay type: cell-based, mouse; details: 5 μM and 10 μM
Procedure: (§1) The DIM used in the study contains approximately 98% of DIM purchased from Sigma-Aldrich t St. Louis, Mo., USA), TRAMP C1 cells (provided by Dr. Barbara Foster, Department of Pharmacology and Therapeutics, Roswell Park Cancer institute, Buffalo. NY), originally derived from TRAMP prostate tumor, were cultured in Dulbecco's Modified Eagle's Medium (Invitrogen Corp., Carlsbad, Calif. U.S.A.) supplemented with 10% (V/V) fetal bovine serum (FBS) (Invitrogen Corp., Grand Island, N.Y., U.S.A.), penicillin 100 U/ml, and streptomycin 100 μg/ml (Invitrogen Corp., Grand Island, N.Y., U.S.A.), Cells were maintained in a humidified incubator with 5% CO2 at 37° C. Cells were seeded in 10 cm plates for 24 h and then treated with 0.1% DMSO (control) or different concentrations of DIM in 1% FBS containing medium for 5 days. The medium was changed every 2 days (20), Total RNA were extracted from DIM treated TRAMP C1 cells and were reversed transcribed. The primers, DNMT1, DNMT3a, DNMT3b, NQO1, HO-1, GSTm1, UGT1a1 and control β-actin of qPCR are listed in Table 5 (Integrated DNA. Technologies, Coralville, Iowa, U.S.A.), The qPCR reactions were carried out with 1 μl cDNA product, 50 nM of each primer, and Power SYBR Green master mix (Applied Biosystems, Foster City, Calif., U.S.A.) in 10 μl reactions. The reactions were performed using an ABI Prism 7900HT sequence detection system; specificity of amplification was verified by first-derivative inciting curve analysis using the ABI software (SDS 2.3, Applied Biosystems, Foster City, Calif., U.S.A.). Relative quantification of gene expression profile was calculated using a ΔΔCt method. (RQ manager, Applied Biosystems, Foster City, C. CA, U.S.A.) as we have performed previously (Barve et al., J Pharm Sci., 2008; 94: 4528-45). Three independent experiments were carried out showing similar results. The results are presented as mean±SD.

DNMT1 = test: qPCR in TRAMP C1 cells; assay type: cell-based, mouse; details: 5 μM and 10 μM, p<0.05
Procedure: as §1

NQO1 [2] = test: qPCR in TRAMP C1 cells; assay type: cell-based, mouse; details: 5 days
Procedure: as §1

DNMT3a = test: qPCR in TRAMP C1 cells; assay type: cell-based, mouse; details: 5 μM, p<0.05
Procedure: as §1

GSTm1 = test: qPCR in TRAMP C1 cells; assay type: cell-based, mouse; details: 5 days
Procedure: as §1

Nrf2 [3] = test: qPCR in TRAMP C1 cells; assay type: cell-based, mouse; details: 5 days
Procedure: as §1

NQO1 [4] = test: Western blot of TRAMP dorso-lateral prostate tissues; assay type: in vivo, mouse; details: D-G1 and D-G2; undetectable in control
Procedure: (§2) The TRAMP C1 cells or dorso-lateral prostate tissues collected from treated and control groups were pooled and homogenized with RIPA buffer (Cell Signaling Technology, Danvers, Mass., U.S.A.) and 10 μg/ml protease inhibitor cocktail (EMD Chemicals, Philadelphia, Pa., U.S.A.). Protein (20 μg) was loaded onto 4-15% SDS-PAGE (Bio-Rad Laboratories, Hercules, Calif., U.S.A.). After separation by SDS-PAGE, the protein was transferred onto nitrocellulose membrane (Millipore Corp., Billerica, Mass., U.S.A.), and then was blocked in 5% bovine serum albumin (BSA) (Fisher Scientific, Fair Law, J. U.S.A.) in tris buffer saline tween-20 (TBST) solution for 1 h. […] After washing min 4 times with TBST solution, the immunoreactive bands were determined by adding SuperSignal West Femto mix (1:1 mix of stable peroxide buffer and luminol/enhancer solution (Thermo Scientific, Rockford, Ill., U.S.A.) to detect immunoreactive bands. The bands were visualized and quantified by BioRad ChemiDoc XRS system (Hercules, Calif., U.S.A.). The primary antibodies used were β-actin, Nrf2, NQO1 (Santa Cruz Biotechnology, Santa Cruz, Calif., U.S.A.), HDAC1, HDAC2, HDAC3, HDAC4 (Cell Signaling Technology Inc., Danvers Mass., U.S.A.), HDAC8 (Proteintech Group Inc., Chicago, Ill., U.S.A.) and DNMT1, DNMT3a, DNMT3b (Imgenex, San Diego, Calif., U.S.A.). […]

Nrf2 [5] = test: as above; assay type: in vivo, mouse; details: D-G1 and D-G2; undetectable in control
Procedure: as §2

c1ccc2c(Cc3c[nH]c4ccccc34)c[nH]c2c1 [DIM, 3,3′-diindolylmethane]
percent of apoptotic cells [1]: significantly higher
DNMT3b mRNA expression (DNMT3b): suppressed
DNMT1 mRNA expression (DNMT1): significantly suppressed
NQO1 mRNA expression (NQO1 [2]): enhanced
DNMT3a mRNA expression (DNMT3a): suppressed
GSTm1 mRNA expression (GSTm1): enhanced
Nrf2 mRNA expression (Nrf2 [3]): enhanced
NQO1 protein expression (NQO1 [4]): induced
Nrf2 protein expression (Nrf2 [5]): induced
